We go through one substance from patent publication US20190070081A1, “DEODORIZING COSMETIC COMPOSITION AND METHOD FOR PREPARING SAME” (EINS CO., LTD., priority 2015, published 2019).

In this series the test system is skin tissue model. Kind of series: Skin irritation test: MTT effective time (ET-50) viable cell assay on skin tissue model. The class given is cell-based. The note with it: for % Viability: skin tissue. The method, then: The skin inflammation potential of a cleaning gel of product No. 1 (also known as Double. S Gel (Lot No. 15730A2); hereinafter, referred to as experimental product)) was evaluated using commercially available MTT effective time (ET-50) live cell experiment test and a skin tissue model.
The experiments performed at the Life Science Institute (BioScience Laboratories, Inc.) began on Sep. 2, 2015 and were completed on Sep. 4, 2015. One deviation in SOP generated during the experiments is shown in Tables 1 to 7 below, the protocols and/or SOP deviation recording formats (form number: 99-QA-004) of FIGS. 1 and 2. […] The skin tissue samples were exposed to the experimental product for 1 hour, 4 hours, or 24 hours.
The experimental product was tested undiluted, as provided by the sponsor. Three untreated negative control dermal tissue specimens were exposed for 24 hours.
The first tissue specimen, the second tissue specimen, and the third tissue specimen were exposed to 1.0% Triton X-100 (Lot No. 082615BBA) as a positive control for 1, 4, and 24 hours, respectively.
At the same time as the experimental procedure, MTT control was evaluated, and the evaluation was regarded as a result of direct reduction of the MTT product. […] During the experimental procedure, the frozen tissue was exposed to the experimental product to determine whether the experimental product was effectively washed from tissue.
The absorbance of the specimens was determined using a VERSA Max™ Tunable Microplate Reader (with SOFTmax® PRO Software) set to 570 nm with several […] aliquots of isopropyl alcohol.
Absorbance values were converted into the probabilistic feasibility of tissue culture by SOFTmax® PRO Software. These values were expressed as time-dependent by SOFTmax® PRO Software, and then ET-50 was determined by interpolation. ET-50 is an estimated time when the probabilistic feasibility of tissues falls to 50%.

Consider Triton X-100 [Positive Control], for which the “Irritancy Classification (Expected In-Vivo Irritancy)” value (from MTT ET-50) was “Moderate to Mild Irritation”. Besides, the “% Viability” value was found to be 66.51% (1 hour exposure), 78.40% (4 hours exposure) and 6.06% (24 hours exposure). The “MTT ET-50” value (tested undiluted, skin tissue exposed 1, 4, 24 hours, time at which viability falls to 50%, by interpolation) stood at 4.65 h.
